ChEMBL document CHEMBL6074678, “Selectively Antagonizing the NOD1-Mediated Inflammatory Signaling Pathway Mitigates the Gastric Inflammation Induced by Helicobacter pylori Infection” (J Med Chem, 2024)
Calls of active or inactive are those of the source. The calls are words filed in the database; no cut-off is given here.

Legend:
BMDM = experiment: Anti-inflammatory activity in mouse BMDM cells assessed as decrease in CXCL8 mRNA level at 1 to 5 uM pretreated for 1 hr followed by infection with Helicobacter pylori for 2 hrs by RT-qPCR analysis; format: functional, cell-based; details: dose 1-5 µM, time 3.0 hrs
[1] = target: T1, Nucleotide-binding oligomerization domain-containing protein 1 (Homo sapiens) (UniProt Q9Y239); experiment: Antagonist activity at NOD1 in human THP-1 cells assessed as decrease in phosphorylated p65 level at 0.1 to 1 uM incubated for 1 hr followed by C12-iE-DAP stimulation for 30 mins by Western blot analysis; format: cell-based; details: filed as antagonist, dose 0.1-1 µM, time 1.5 hrs
T1 sequence (whole entry): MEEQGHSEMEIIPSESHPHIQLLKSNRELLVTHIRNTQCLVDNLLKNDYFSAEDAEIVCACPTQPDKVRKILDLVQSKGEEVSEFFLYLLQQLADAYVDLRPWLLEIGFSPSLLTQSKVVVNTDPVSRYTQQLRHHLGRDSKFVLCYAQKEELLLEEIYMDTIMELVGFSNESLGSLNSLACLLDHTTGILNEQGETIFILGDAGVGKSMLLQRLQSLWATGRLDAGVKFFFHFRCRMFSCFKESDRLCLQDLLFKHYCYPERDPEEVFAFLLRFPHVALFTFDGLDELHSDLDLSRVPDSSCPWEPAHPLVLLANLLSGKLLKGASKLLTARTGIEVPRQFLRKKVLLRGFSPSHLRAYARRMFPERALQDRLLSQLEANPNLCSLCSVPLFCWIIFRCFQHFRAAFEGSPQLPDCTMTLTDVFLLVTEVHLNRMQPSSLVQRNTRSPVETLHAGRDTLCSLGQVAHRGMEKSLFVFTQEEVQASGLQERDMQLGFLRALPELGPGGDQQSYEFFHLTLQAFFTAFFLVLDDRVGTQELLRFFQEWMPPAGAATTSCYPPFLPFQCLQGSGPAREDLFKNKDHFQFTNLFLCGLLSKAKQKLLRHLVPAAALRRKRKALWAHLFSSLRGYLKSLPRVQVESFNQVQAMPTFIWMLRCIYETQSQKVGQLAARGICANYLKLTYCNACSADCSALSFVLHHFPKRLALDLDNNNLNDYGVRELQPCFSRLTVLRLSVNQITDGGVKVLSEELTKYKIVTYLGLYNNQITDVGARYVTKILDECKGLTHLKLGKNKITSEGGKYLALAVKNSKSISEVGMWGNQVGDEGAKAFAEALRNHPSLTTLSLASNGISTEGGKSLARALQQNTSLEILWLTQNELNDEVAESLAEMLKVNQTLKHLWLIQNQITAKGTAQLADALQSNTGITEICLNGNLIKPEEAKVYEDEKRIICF

[2] = Clearance in C57BL/6 mouse at 2 mg/kg, iv by LC-MS/MS analysis; format: ADME, organism-based; details: in vivo
[3] = Cmax in C57BL/6 mouse at 2 mg/kg, iv by LC-MS/MS analysis; format: ADME, organism-based; details: in vivo
[4] = target: T1, Nucleotide-binding oligomerization domain-containing protein 1 (Homo sapiens); experiment: Antagonist activity at NOD1 in human THP-1 cells assessed as decrease in phosphorylated JNK level at 0.1 to 1 uM incubated for 1 hr followed by C12-iE-DAP stimulation for 30 mins by Western blot analysis; format: cell-based; details: filed as antagonist, dose 0.1-1 µM, time 1.5 hrs
THP-1 [5] = experiment: Anti-inflammatory activity in human THP-1 cells assessed as decrease in IL-6 mRNA level at 5 uM pretreated for 1 hr followed by infection with Helicobacter pylori for 2 hrs by RT-qPCR analysis relative to control; format: functional; design: scale not given: the % may be the effect or the level left; details: time 3 hrs
[6] = MRT (infinity) in C57BL/6 mouse at 20 mg/kg, po by LC-MS/MS analysis; format: ADME, organism-based; details: in vivo
[7] = AUC (infinity) in C57BL/6 mouse at 2 mg/kg, iv by LC-MS/MS analysis; format: ADME, organism-based; details: in vivo
[8] = Anti-inflammatory activity in mouse BMDM cells assessed as decrease in TNF-alpha mRNA level at 0.1 uM pretreated for 1 hr followed by C12-iE-DAP stimulation for 2 hrs by RT-qPCR analysis relative to control; format: functional; design: scale not given: the % may be the effect or the level left; details: time 3 hrs
THP-1 [9] = experiment: Anti-inflammatory activity in human THP-1 cells assessed as decrease in TNF-alpha mRNA level at 0.1 uM pretreated for 1 hr followed by C12-iE-DAP stimulation for 2 hrs by RT-qPCR analysis relative to control; format: functional; design: scale not given: the % may be the effect or the level left; details: time 3 hrs
[10] = Cytotoxicity against HEK-Blue mNOD1 cells by SRB assay; format: toxicity, cell-based; details: human
[11] = AUC (infinity) in C57BL/6 mouse at 20 mg/kg, po by LC-MS/MS analysis; format: ADME, organism-based; details: in vivo
Mus musculus = experiment: Anti-inflammatory activity in C57BL/6 mouse model of Helicobacter pylori-induced gastric inflammation assessed as reduction in IL-6 level in gastric tissue at 50 mg/kg, po pretreated with compound upto 24 hrs followed by infection of Helicobacter pylori measured upto 72 hrs; format: functional, organism-based; details: time <= 96.0 hrs
[12] = target: T1, Nucleotide-binding oligomerization domain-containing protein 1 (Homo sapiens); experiment: Antagonist activity at human NOD1 expressed in HEK-Blue cells assessed as decrease in SEAP secretion incubated for 3 hrs followed by C12-iE-DAP stimulation for 20 hrs by spectrophotometry; format: cell-based; details: HEK-Blue hNOD1, filed as antagonist, time 23.0 hrs

inhibition [1]: Active
clearance [2]: 474 mL/min/kg
Cmax [3]: 234 ng/mL
inhibition [4]: Active
MRT inf [6]: 3.22 h
AUC [7]: 75.3 ng·h/mL
AUC(0-inf) [11]: 35.9 ng·h/mL
Activity [12]: Dose-dependent-effect
SMILES: CS(=O)(=O)c1ccc2nc(Cl)n(-c3ccc(Cl)c(NS(=O)(=O)c4c(F)cccc4F)c3)c(=O)c2c1
Activity (BMDM): Active
Activity (THP-1 [5]): 100%
Activity [8]: ~100%
Activity (THP-1 [9]): ~100%
Activity [10]: Non-toxic
Activity (Mus musculus): Active
